In patent US9113629B2, “4-amino-6-(4-substituted-phenyl)-picolinates and 6-amino-2-(4-substituted-phenyl)-pyrimidine-4-carboxylates and their use as herbicides” (DOW AGROSCIENCES LLC, priority 2013, dated 2015):
Like-named read-outs stand apart in the source and are kept apart here.

Key:
[1] = system: Key Broadleaf Weed and Crop Species; assay: Post-emergent Test II herbicidal activity (Table 5); type: in vivo; conditions: post-emergence, 336 h, 14 days after application
Method in brief: (§1)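 Spray rates: a highest rate plus ½×, ¼×, ⅛×, 1/16×, all delivered at 187 L/ha to plants at the first–second true leaf stage. Readout is a visual percent injury score at 14 d, where 100 means complete kill.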

[2] = system: Key Grass and Sedge Weeds as well as Grass Crops; assay: Post-emergent Test II herbicidal activity (Table 6); type: in vivo; conditions: post-emergence, 336 h; for pest or weed control at 70 g/ha: application rate 70 g ai/ha; for pest or weed control at 140 g/ha: application rate 140 g ai/ha
Method in brief: as §1

[3] = CYPES: yellow nutsedge (Cyperus esculentus), read-out: Visual Growth Reduction (%) 14 Days After Application, CYPES
[4] = DIGSA: crabgrass (Digitaria sanguinalis), read-out: Visual Growth Reduction (%) 14 Days After Application, DIGSA
[5] = ECHCG: barnyardgrass (Echinochloa crus-galli), read-out: Visual Growth Reduction (%) 14 Days After Application, ECHCG
[6] = ORYSA: rice (Oryza sativa), read-out: Visual Growth Reduction (%) 14 Days After Application, ORYSA
[7] = SETFA: giant foxtail (Setaria faberi), read-out: Visual Growth Reduction (%) 14 Days After Application, SETFA
[8] = SORVU: grain sorghum (Sorghum vulgare), read-out: Visual Growth Reduction (%) 14 Days After Application, SORVU
[9] = TRZSS (wheat, Triticum aestivum), read-out: Visual Growth Reduction (%) 14 Days After Application, TRZSS
[10] = ZEAMX: maize, corn (Zea mays), read-out: Visual Growth Reduction (%) 14 Days After Application, ZEAMX
[11] = Triticum aestivum, TRZSS (wheat), read-out: Visual Growth Reduction (%) 14 Days After Application, TRZSS

C=Cc1c(N)nc(-c2ccc(I)cc2)nc1C(=O)O [Compound 123, 6-Amino-2-(4-iodophenyl)-5-vinylpyrimidine-4-carboxylic acid]
pest or weed control at 70 g/ha ([1]; ABUTH: velvetleaf (Abutilon theophrasti), 70 g ai/ha, post-emergent, read-out: Visual Growth Reduction (%) 14 Days After Application ABUTH): 0 to 29% | pest or weed control at 140 g/ha ([1]; ABUTH: velvetleaf (Abutilon theophrasti), 140 g ai/ha, post-emergent, read-out: Visual Growth Reduction (%) 14 Days After Application ABUTH): 0 to 29% | pest or weed control at 70 g/ha ([1]; AMARE: redroot pigweed (Amaranthus retroflexus), 70 g ai/ha, post-emergent, read-out: Visual Growth Reduction (%) 14 Days After Application AMARE): 95 to 100% | pest or weed control at 140 g/ha ([1]; AMARE: redroot pigweed (Amaranthus retroflexus), 140 g ai/ha, post-emergent, read-out: Visual Growth Reduction (%) 14 Days After Application AMARE): 95 to 100% | pest or weed control at 70 g/ha ([1]; BRSNN: oilseed-rape, canola (Brassica napus), 70 g ai/ha, post-emergent, read-out: Visual Growth Reduction (%) 14 Days After Application BRSNN): 0 to 29% | pest or weed control at 140 g/ha ([1]; BRSNN: oilseed-rape, canola (Brassica napus), 140 g ai/ha, post-emergent, read-out: Visual Growth Reduction (%) 14 Days After Application BRSNN): 60 to 74% | pest or weed control at 70 g/ha ([1]; CHEAL: lambsquarters (Chenopodium album), 70 g ai/ha, post-emergent, read-out: Visual Growth Reduction (%) 14 Days After Application CHEAL): 0 to 29% | pest or weed control at 140 g/ha ([1]; CHEAL: lambsquarters (Chenopodium album), 140 g ai/ha, post-emergent, read-out: Visual Growth Reduction (%) 14 Days After Application CHEAL): 0 to 29% | pest or weed control at 70 g/ha ([1]; EPHHL: wild poinsettia (Euphorbia heterophylla), 70 g ai/ha, post-emergent, read-out: Visual Growth Reduction (%) 14 Days After Application EPHHL): 95 to 100% | pest or weed control at 140 g/ha ([1]; EPHHL: wild poinsettia (Euphorbia heterophylla), 140 g ai/ha, post-emergent, read-out: Visual Growth Reduction (%) 14 Days After Application EPHHL): 95 to 100% | pest or weed control at 70 g/ha ([1]; HELAN: sunflower (Helianthus annuus), 70 g ai/ha, post-emergent, read-out: Visual Growth Reduction (%) 14 Days After Application HELAN): 75 to 84% | pest or weed control at 140 g/ha ([1]; HELAN: sunflower (Helianthus annuus), 140 g ai/ha, post-emergent, read-out: Visual Growth Reduction (%) 14 Days After Application HELAN): 75 to 84% | pest or weed control at 70 g/ha ([1]; VIOTR: wild pansy (Viola tricolor), 70 g ai/ha, post-emergent, read-out: Visual Growth Reduction (%) 14 Days After Application VIOTR): 0 to 29% | pest or weed control at 140 g/ha ([1]; VIOTR: wild pansy (Viola tricolor), 140 g ai/ha, post-emergent, read-out: Visual Growth Reduction (%) 14 Days After Application VIOTR): 45 to 59% | pest or weed control at 70 g/ha [2, 3]: 0 to 29% | pest or weed control at 140 g/ha [2, 3]: 45 to 59% | pest or weed control at 70 g/ha [2, 4]: 0 to 29% | pest or weed control at 140 g/ha [2, 4]: 0 to 29% | pest or weed control at 70 g/ha [2, 5]: 75 to 84% | pest or weed control at 140 g/ha [2, 5]: 85 to 94% | pest or weed control at 70 g/ha [2, 6]: 0 to 29% | pest or weed control at 140 g/ha [2, 6]: 0 to 29% | pest or weed control at 70 g/ha [2, 7]: 0 to 29% | pest or weed control at 140 g/ha [2, 7]: 0 to 29% | pest or weed control at 70 g/ha [2, 8]: 30 to 44% | pest or weed control at 140 g/ha [2, 8]: 30 to 44% | pest or weed control at 70 g/ha [2, 9]: 0 to 29% | pest or weed control at 140 g/ha [2, 9]: 0 to 29% | pest or weed control at 70 g/ha [2, 10]: 45 to 59% | pest or weed control at 140 g/ha [2, 10]: 60 to 74% | melting point: 187 to 190 °C

COC(=O)c1nc(-c2ccc(I)c(F)c2F)cc(N)c1Cl [Compound 129, Methyl 4-amino-3-chloro-6-(2,3-difluoro-4-iodophenyl)picolinate]
pest or weed control at 70 g/ha ([1]; ABUTH: velvetleaf (Abutilon theophrasti), application rate 70 g ai/ha, read-out: Visual Growth Reduction (%) 14 Days After Application, ABUTH): 95 to 100% | pest or weed control at 140 g/ha ([1]; ABUTH: velvetleaf (Abutilon theophrasti), application rate 140 g ai/ha, read-out: Visual Growth Reduction (%) 14 Days After Application, ABUTH): 95 to 100% | pest or weed control at 70 g/ha ([1]; AMARE: redroot pigweed (Amaranthus retroflexus), application rate 70 g ai/ha, read-out: Visual Growth Reduction (%) 14 Days After Application, AMARE): 95 to 100% | pest or weed control at 140 g/ha ([1]; AMARE: redroot pigweed (Amaranthus retroflexus), application rate 140 g ai/ha, read-out: Visual Growth Reduction (%) 14 Days After Application, AMARE): 95 to 100% | pest or weed control at 70 g/ha ([1]; BRSNN: oilseed-rape, canola (Brassica napus), application rate 70 g ai/ha, read-out: Visual Growth Reduction (%) 14 Days After Application, BRSNN): 85 to 94% | pest or weed control at 140 g/ha ([1]; BRSNN: oilseed-rape, canola (Brassica napus), application rate 140 g ai/ha, read-out: Visual Growth Reduction (%) 14 Days After Application, BRSNN): 95 to 100% | pest or weed control at 70 g/ha ([1]; CHEAL: lambsquarters (Chenopodium album), application rate 70 g ai/ha, read-out: Visual Growth Reduction (%) 14 Days After Application, CHEAL): 95 to 100% | pest or weed control at 140 g/ha ([1]; CHEAL: lambsquarters (Chenopodium album), application rate 140 g ai/ha, read-out: Visual Growth Reduction (%) 14 Days After Application, CHEAL): 95 to 100% | pest or weed control at 70 g/ha ([1]; EPHHL: wild poinsettia (Euphorbia heterophylla), application rate 70 g ai/ha, read-out: Visual Growth Reduction (%) 14 Days After Application, EPHHL): 95 to 100% | pest or weed control at 140 g/ha ([1]; EPHHL: wild poinsettia (Euphorbia heterophylla), application rate 140 g ai/ha, read-out: Visual Growth Reduction (%) 14 Days After Application, EPHHL): 95 to 100% | pest or weed control at 70 g/ha ([1]; HELAN: sunflower (Helianthus annuus), application rate 70 g ai/ha, read-out: Visual Growth Reduction (%) 14 Days After Application, HELAN): 75 to 84% | pest or weed control at 140 g/ha ([1]; HELAN: sunflower (Helianthus annuus), application rate 140 g ai/ha, read-out: Visual Growth Reduction (%) 14 Days After Application, HELAN): 85 to 94% | pest or weed control at 70 g/ha ([1]; VIOTR: wild pansy (Viola tricolor), application rate 70 g ai/ha, read-out: Visual Growth Reduction (%) 14 Days After Application, VIOTR): 95 to 100% | pest or weed control at 140 g/ha ([1]; VIOTR: wild pansy (Viola tricolor), application rate 140 g ai/ha, read-out: Visual Growth Reduction (%) 14 Days After Application, VIOTR): 95 to 100% | pest or weed control at 70 g/ha [2, 11]: 45 to 59% | pest or weed control at 140 g/ha [2, 11]: 45 to 59% | pest or weed control at 70 g/ha [2, 3]: 95 to 100% | pest or weed control at 70 g/ha [2, 4]: 60 to 74% | pest or weed control at 140 g/ha [2, 4]: 60 to 74% | pest or weed control at 70 g/ha [2, 5]: 75 to 84% | pest or weed control at 140 g/ha [2, 5]: 75 to 84% | pest or weed control at 70 g/ha [2, 6]: 0 to 29% | pest or weed control at 140 g/ha [2, 6]: 0 to 29% | pest or weed control at 70 g/ha [2, 8]: 95 to 100% | pest or weed control at 140 g/ha [2, 8]: 95 to 100% | pest or weed control at 70 g/ha [2, 10]: 60 to 74% | pest or weed control at 140 g/ha [2, 10]: 75 to 84% | melting point: 172 to 174 °C
